Test results reported in patent EP2253629A1, “Polymorphs of racemic sunitinib malate, compositions containing them and preparation thereof” (Teva Pharmaceutical Industries Ltd., priority 2007, dated 2009).

Assay: solubility in water
Assay type: physicochemical

CCN(CC)CCNC(=O)c1c(C)[nH]c(/C=C2\C(=O)Nc3ccc(F)cc32)c1C [sunitinib base form VIII, N-[2-(diethylamino)ethyl]-5-[(Z)-(5-fluoro-1,2-dihydro-2-oxo-3H-indol-3-ylidine)methyl]-2,4-dimethyl-1 H-pyrrole-3-carboxamide]
solubility: < 1000 µg/mL
